Laboratory results as given in US12345641B2, “Fluorescence quenching immunoassay” (IDEXX Laboratories, Inc., priority 2020, dated 2025).

Experiments:
[1] = test system: α-cortisol antibodies; test: Fluorescence quenching of cortisol-4-Fl with cortisol antibody (Example 28); assay type: binding
Experimental: The cortisol-4-FL was combined with various equivalents of various a-cortisol antibodies commercially available from HyTest (of Turku, Finland), Abcam (of Cambridge, United Kingdom), and Bio-Connect BV (Fitzgerald Industries) (of the Netherlands). The fluorescence was measured as a function of the ratio of antibody (Ab) to cortisol-4-FL. The results are depicted in FIG. 21.

[2] = biological target: streptavidin (Streptomyces avidinii, UniProt P22629); test: Fluorescence of Biotin-F or Biotin-ED in the presence of streptavidin (Example 19); assay type: binding; details: saturation point, 1:1 molar ratio streptavidin to tracer
Experimental: Biotin-F or Biotin-ED (commercially available from Thermo Scientific of Waltham, MA) was dissolved in DMSO to provide a DMSO solution (8.5 μM). The structure of biotin ED is
The DMSO solution was then diluted with PBS to provide a solution having a Biotin-F or Biotin-ED concentration of 100 nM. 20 μL aliquots of the resulting Biotin-F or Biotin-ED solution in PBS was then added to the wells of a 96 well black assay plate. Solutions of streptavidin in PBS having a streptavidin concentration ranging from 0 to 100 nM were prepared and added (180 μL) to the Biotin-F or Biotin-ED solution in the plate. The plate was incubated for 30 min at room temperature and the fluorescence intensities then recorded.

[3] = test system: α-Cholic Acid antibody; test: Fluorescence quenching of CA-Fl with anti-cholic acid antibody in PBS (Example 41); assay type: binding
Experimental: A working solution of CA-Fl in PBS (100 nM) was prepared. The working solution was then combined with various equivalents of α-Cholic Acid antibody (1:1, v/v) (commercially available from Fitzgerald Industries of the Netherlands). The fluorescence was measured as a function of the ratio of antibody (Ab) to CA-Fl. The results are depicted in FIG. 33. […] The higher the ratio of antibody to CA-Fl tracer, the greater the amount of quenching.

[4] = test system: anti-cefotaxime polyclonal antibody; test: Fluorescence of CEF-F with anti-cefotaxime antibody (Example 25); assay type: binding; details: tracer and antibody 200 nM
Experimental: Beta lactam antibiotics conjugated to fluorescein (i.e., AMO-FITC, AMO-F, AMP-F, and CEF-F) in PBS (400 nM, 100 μL) were mixed with either anti-penicillin or anti-cefotaxime polyclonal antibody (400 nM, 100 μL, commercially available from Novus Biologicals, LLC of Centennial, CO) in the absence of and in the presence of free beta-lactam antibiotic (ampicillin (400 nM) was added to AMP-F and cefotaxime (400 nM) was added to CEF-F) in a 96 well black assay plate. […] The solutions were incubated at room temperature for 5 min and the fluorescence intensity measured.

[5] = test system: Polyclonal anti-melamine antibody (Anti-Mel-Ab); test: Fluorescence of mixtures of melamine fluorescent tracers and anti-melamine antibody (Example 15); assay type: binding; details: tracer 30 nM, Anti-Mel-Ab 0 to 300 nM, PBS, ex 490 nm/em 520 nm
Experimental: Various substituted fluorescent tracers wherein melamine is conjugated to fluorescein were dissolved in DMSO (1 mM) and diluted in phosphate buffered saline (PBS) (pH=7.3) to provide a melamine tracer solution (1.2 μM). The following melamine tracers were used:
Polyclonal anti-melamine antibody (Anti-Mel-Ab, 4.65 mg/ml, commercially available from Meridian Life Sciences Inc. (Biodesign) of Memphis, TN) was diluted in PBS and serially diluted to provide Anti-Mel-Ab solutions having Anti-Mel-Ab concentrations ranging from 0 to 300 nM. The melamine tracer solutions (5 μL) were mixed with each Anti-Mel-Ab solution (195 μl) in a 96 well black assay plate with non-binding surface (commercially available from Corning Inc. of Corning, NY) to provide solutions having different molar ratios of the Anti-Mel-Ab to the melamine tracer. The concentration of the melamine tracer was 30 nM. The plate was gently shaken for 30 min at room temperature. The fluorescence intensities of each solution was then measured using a fluorescence plate reader (Synergy 4 Microplate Reader, commercially available from BioTek Instruments, Inc. of Winooski, VT) using an excitation wavelength of 490 nm and reading the emission at 520 nm.
Unless otherwise indicated, an excitation wavelength of 490 nm and reading the emission at 520 nm were used throughout the examples. […]

[6] = test system: Anti-Mel-Ab; test: Fluorescence of Mel-F and Anti-Mel-Ab in PBS, serum and diluted serum with and without melamine (Example 17); assay type: binding; details: each solution: PBS, canine serum, serum diluted 1 in 10
Experimental: To a solution of Mel-F in PBS (1 μM, 6 μL) and to a mixture of Mel-F in PBS (1 μM, 6 μL) and Anti-Mel-Ab (1 μM, 6 μL) in the absence of and in the presence of melamine (2 μM, 6 μL) was added PBS, serum, or diluted serum (i.e., serum diluted 1 in 10 with PBS) to provide a final volume of 200 μL.

[7] = test system: anti-SDMA antibody; test: SDMA dose response with SDMA tracer/SDMA antibody solution (Example 34); assay type: binding; details: SDMA 0 to 100 μg/dL added to SDMA-DFF, SDMA-DCF or SDMA-Fl tracer/antibody solution
Experimental: Solutions of various SDMA tracers (SDMA-Fl, SDMA-DFF, and SDMA-DCF) in PBS (with 0.1% Tween) were prepared at a concentrations 400 nM. Solutions of anti-SDMA antibody or anti-SDMA antibody conjugated to BHQ10 (4 eq.) in PBS were prepared at concentrations of 400 and 800 nM, respectively.
SDMA standard solutions were prepared by serially diluting SDMA in PBS (with 0.1% Tween) to provide a final SDMA concentration of 100, 50, 25, 12,5, 6.26, 0 μg/dL.
50 μl of each SDMA standard solution was added to the well of a 96-well UV transparent plate. 50 μl of the SDMA tracer/SDMA antibody solution was then added to each well, the resulting solution mixed well by shaking, and incubated at room temperature for 30 min.

[8] = test system: anti-T4-Mab; test: Fluorescence of T3 tracers and anti-T4-Mab in the presence of T4 (Example 20); assay type: binding
Experimental: Similar solutions were prepared and the fluorescence measured except that the T3-F was replaced with T3-5-F, T3-E-F and T3-FITC.

[9] = test system: anti-T4-Mab; test: Fluorescence of T3-F and anti-T4-Mab after lyophilization (Example 22); details: T3-F and/or anti-T4-Mab lyophilized to dryness, reconstituted in PBS or charcoal treated horse serum
Experimental: T3-F (1.7 mg) was dissolved in 0.85 ml DMSO to provide a stock solution (2 mM). The T3-F stock solution was then diluted in PBS to provide a 1 μM working solution that was separated into two vials (1 mL each). To the first vial was added PBS (9 mL) and to the second vial was added PBS (8.9 mL) plus anti-T4 Mab (15 μM, 0.1 mL). The vials were mixed well and incubated for 30 min at room temperature. The fluorescence intensities for each solution (200 μL) was determined. Aliquots of each solution (200 μL) were then placed into wells of a 96 well black assay plate and lyophilized to dryness. To the dried residues was added 200 μL PBS, horse serum that had been treated with charcoal (i.e., the serum was “charcoal stripped” by dialyzing the serum in PBS buffer containing charcoal for at least three buffer changes to remove small molecules from the serum), or horse serum that had been treated with charcoal containing T4 (10 μg/dL) and the plate incubated for 30 min at room temperature. Fluorescence intensities were then recorded again.

[10] = test system: anti-T4 antibody; test: Maximum percentage fluorescence quenching of T2-F, T3-F, T4-F by anti-T4 antibody with and without quencher label (Example 27 table); assay type: binding
Experimental: In another experiment, tracer T2-F, T3-F, or T4-F was dissolved in DMSO to provide a DMSO solution at a tracer concentration of 1 mM. The DMSO solution was then diluted with phosphate buffered saline (“PBS”) to provide a stock solution of each tracer at a concentration of 10 μM. Monoclonal anti-T4-Mab or anti-T4-Mab conjugated to a quencher (Cy3-Ab, IRdyeQC1-Ab, Cy5-Ab, BHQ1-Ab) were serially diluted in PBS to provide solutions having an Anti-T4-Mab or anti-T4-Mab conjugated to quencher at concentration ranging from 0 to 2 μM. In a 96 well black assay plate containing the serially diluted Anti-T4-Mab or anti-T4-Mab conjugated to quencher (95 μL) was added the tracer T2-F, T3-F, or T4-F solution (5 μL), mixed well, and incubated for 30 min and the fluorescence intensities then recorded at an excitation wavelength of 485 nm and an emission wavelength of 520 nm. The results of maximum percentage fluorescence quenching for different tracers and quencher-modified antibodies are provided in the following Table: […]

Sequence of streptavidin (P22629 25-183, species assumed): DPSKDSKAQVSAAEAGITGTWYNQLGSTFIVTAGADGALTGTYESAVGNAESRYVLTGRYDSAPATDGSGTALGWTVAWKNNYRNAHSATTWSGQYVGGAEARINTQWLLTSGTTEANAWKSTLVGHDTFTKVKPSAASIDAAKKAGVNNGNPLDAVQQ

SMILES: C[C@]12CCC(=NOCC(=O)NCc3c(O)ccc4c(-c5ccccc5C(=O)O)c5ccc(=O)cc-5oc34)C=C1CCC1C2[C@@H](O)C[C@@]2(C)C1CC[C@]2(O)C(=O)CO (stereo in doubt) [Cortisol-4-Fl]
- fluorescence quenching on complex formation with cortisol antibody [1]: quenched

SMILES: O=C(CCCCC1SCC2NC(=O)NC21)NCc1c(O)ccc2c(-c3ccccc3C(=O)O)c3ccc(=O)cc-3oc12 (stereo not shown) [Biotin-F, Biotin-Fluorescein]
- quenching efficiency [2]: 70%

SMILES: C[C@H](CCC(=O)NCc1c(O)ccc2c(-c3ccccc3C(=O)O)c3ccc(=O)cc-3oc12)[C@H]1CC[C@H]2[C@@H]3[C@H](O)C[C@@H]4C[C@H](O)CC[C@]4(C)[C@H]3C[C@H](O)[C@]12C [CA-Fl, Cholic Acid-Fluorescein Conjugate]
- fluorescence quenching on complex formation with α-Cholic Acid antibody [3]: quenched

SMILES: CO/N=C(\C(=O)NC1C(=O)N2C(C(=O)NCc3c(O)ccc4c(-c5ccccc5C(=O)O)c5ccc(=O)cc-5oc34)=C(COC(C)=O)CSC12)c1csc(N)n1 (stereo not shown) [CEF-F, Cefotaxime-Fluorescein]
- fluorescence quenching by anti-cefotaxime antibody [4]: quenched

SMILES: Nc1nc(N)nc(NCc2c(O)ccc3c(-c4ccccc4C(=O)O)c4ccc(=O)cc-4oc23)n1 [Mel-F, Melamine-Fluorescein]
- degree of fluorescence quenching compared to the other melamine tracers [5]: highest degree of quenching
- fluorescence of Mel-F after quenching by Anti-Mel-Ab relative to original value [6]: about one-half of the original value

SMILES: C/N=C(\NC)NCCC[C@H](N)C(=O)O [SDMA, symmetrical dimethylarginine]
- fluorescence intensity as a function of SDMA concentration [7]: a dose response is observed

SMILES: O=C(O)c1ccccc1-c1c2ccc(=O)cc-2oc2c(CNC(Cc3cc(I)c(Oc4ccc(O)c(I)c4)c(I)c3)C(=O)O)c(O)ccc12 (stereo not shown) [T3-F]
- fluorescence quenching by anti-T4-Mab ([8]; PBS, tracer and antibody equimolar): quenched
- time to stable fluorescence signal ([8]; quenching by anti-T4-Mab and recovery after addition of T4): ≤ 10 min
- assay performance after lyophilization of reagents [9]: effective
- Percentage of fluorescence quenching, BHQ1-Ab ([10]; anti-T4-Mab conjugated to BHQ1): 30%
- Percentage of fluorescence quenching, Cy5-Ab ([10]; anti-T4-Mab conjugated to Cy5): 40%
- Percentage of fluorescence quenching, Ab ([10]; anti-T4-Mab without quencher): 30%
